Reference: patent EP0359454B1, “CC-1065 analogs having two CPI subunits” (PHARMACIA & UPJOHN COMPANY, priority 1988, dated 1990)
Converted amounts (≈) assume the structure as drawn.

Tests used:
[1] = in vitro and in vivo, depending upon the particular test system; cited from earlier work
B-16 i.p. = B-16 i.p. tumor, i.v. dose on day 1; type: in vivo, murine; conditions: for OD (optimum dose): i.v. dose on day 1; for T/C: i.v. dose on day 1, at optimum dose
Text: The compounds of Formula I are particularly useful as antitumor agents. […] These murine test systems are predictive for clinically useful human antitumor agents (see, for examle, A. Geldin et al, European J. Cancer, Vol. 17, pp 129-142, 1981; J.M. Vendetti, Cancer Treatment Reports, Vol. 67, pp. 767-772, 1983; and J.M. Vendetti et al, Advances in Pharmacology and Chemotherapy, Vol. 20, pp. 1-20, 1984), and, therefore, the compounds of the subject invention (Formula I) will be useful in the control and treatment of susceptible neoplastic (cancer) diseases, including susceptible leukemics, in humans when given, for example, intravenously in doses of 0.001 µg/kg to about 10 mg/kg of body weight per day, the exact dose depending on the age, weight, and condition of the patient, and on the frequency of administration.
(§1) Table 3 presents data comparing [S-(R*,R*)]-6,6′-[carbonylbis(imino-1H-indole-5,2-dicarbonyl)]bis[8-chloromethyl)-3,6,7,8-tetrahydro-1-methyl-benzo[1,2-b:4,3-b′]dipyrrol-4-ol (Compound 1) with (7bR)-N-[2-[(4,5,8,8a-tetrahydro-7-methyl-4-oxocyclopropa-[C]pyrrolo[3,2-e]indol-2(1H)0yl)carbonyl]-1H-indol-5-yl]-2-benzofurancarboxamide (U-73,975) in the other murine systems where the compounds have been run jointly.
(§2) T/C refers to median life span of treated mice divided by median life span of control mice times 100.

L-1210 sc = L-1210 sc tumor, i.p. dose on day 1; type: in vivo, murine; conditions: for OD (optimum dose) / cures: L-1210 sc; for OD (optimum dose): i.p. dose 1 on day 1; for cures: i.p. dose 1 on day 1, at optimum dose, survival 30 days = cured
Text: as §1
(§3) The results set forth in Tables 1 and 4 were obtained using standard well known procedures (In Vivo Cancer, Models, NIH Publication No. 84-2635, 1984).
as §2

Lewis Lung i.v. = Lewis Lung i.v. tumor, i.v. dose on days 1,5,9; type: in vivo, murine; conditions: for OD (optimum dose): i.v. dose on days 1,5,9; for T/C: i.v. dose on days 1,5,9, at optimum dose
Text: as §1, §2

[2] = Delayed death in animals without tumor; type: in vivo, murine; conditions: NO TUMOR
Text: as §1

L1210 leukemia cells = experiment: In vitro L1210 cell growth inhibition; type: cell-based, murine; conditions: Mus musculus, concentration of drug which inhibits cell growth 50%, read-out: ID50 (the source's name)
Text: as §1

L-1210 Leukemia = experiment: L-1210 leukemia in vivo, IV drug vs IP tumor, dosed on day 1; parameters: species or system Male BDF1 mice; conditions: for OD (optimum dose): i.v. dose on day 1
Text: as §1, §3, §2

L-1210 i.p. = L-1210 i.p. tumor, i.p. dose on days 1,5,9; type: in vivo, murine; conditions: for OD (optimum dose): i.p. dose on days 1,5,9; for cures: i.p. dose on days 1,5,9, at optimum dose, survival 30 days = cured
Text: as §1, §3, §2

SMILES	factor by which less potent than CC-1065 [1]	OD (optimum dose) (B-16 i.p.) [mg/kg]	T/C (B-16 i.p.)	OD (optimum dose) (L-1210 sc) [mg/kg]	cures (L-1210 sc)	Activity compared with U-73,975 (in words) (L-1210 sc; subcutaneous L1210 assay, over several dose ranges)	OD (optimum dose) (Lewis Lung i.v.) [mg/kg]	T/C (Lewis Lung i.v.)	Delayed death [2]	Delayed death ([2]; listed as Cpd 1)	IC50 (L1210 leukemia cells) [ng/mL]	cures (L-1210 Leukemia; IV drug vs IP tumor, dosed on day 1, animals surviving 30 days are considered cured, at the dose (µg/kg))	OD (optimum dose) (L-1210 Leukemia; L-1210 i.p.) [mg/kg]	cures (L-1210 Leukemia; L-1210 i.p., i.v. dose on day 1, at optimum dose, animals which survive 30 days are considered cured)	In vivo L1210 activity (in words) (L-1210 Leukemia; at 15 µg/kg)	OD (optimum dose) (L-1210 i.p.) [mg/kg]	cures (L-1210 i.p.)	Delayed death ([2]; listed as U-73-975)	Best T/C (L-1210 Leukemia; IV drug vs IP tumor, dosed on day 1, T/C = median survival treated/control x 100, each value at the dose (1-600 µg/kg))	Best T/C (L-1210 Leukemia; L-1210 i.p., i.v. dose on day 1, at optimum dose)
COc1c(O)c2c(c3cc(C(=O)N4CCc5c4c(O)c(OC)c4[nH]c(C(=O)N6CC(COC(C)=O)c7c6cc(O)c6[nH]cc(C)c76)cc54)[nH]c13)CCN2C(N)=O (stereo not drawn) [AAP, 7-[[7-[[1-[(acetyloxy)methyl]-1,6-dihydro-5-hydroxy-8-methylbenzo[1,2-b:4,3-b′]dipyrrol-3(2H)-yl]carbonyl]-1,6-dihydro-4-hydroxy-5-methoxybenzo[1,2:4,3-b′]-dipyrrol-3(2H)-yl]carbonyl]-1,6-dihydro-4-hydroxy-5-methoxy-benzo[1,2-b:4,3-b′]dipyrrole-3(2H)-carboxamide]	10^3 to 10^4	–	–	–	–	–	–	–	–	–	–	–	–	–	–	–	–	–	–	–
Cc1c[nH]c2c(O)cc3c(c12)[C@H](CCl)CN3C(=O)c1cc2cc(NC(=O)Nc3ccc4[nH]c(C(=O)N5C[C@@H](CCl)c6c5cc(O)c5[nH]cc(C)c65)cc4c3)ccc2[nH]1 [Compound 1, [S-(R*,R*)]-6,6′-[carbonylbis(imino-1H-indole-5,2-dicarbonyl)]bis[8-chloromethyl)-3,6,7,8-tetrahydro-1-methylbenzo[1,2-b:4,3-b′]dipyrrol-4-ol]	–	0.015	167	0.01 to 0.025	(6/6)	superior activity	0.004	168	not to cause delayed death	No Delayed Death	0.001 (≈ 0.00123 nM)	4/6 cures	0.01 to 0.015	(4/6)	highly curative	0.004	(3/6)	–	–	–
Cc1c[nH]c2c1[C@@]13C[C@@H]1CN(C(=O)c1cc4cc(NC(=O)c5cc6ccccc6o5)ccc4[nH]1)C3=CC2=O [U-73,975, (7bR)-N-[2-[(4,5,8,8a-tetrahydro-7-methyl-4-oxocyclopropa-[C]pyrrolo[3,2-e]indol-2(1H)0yl)carbonyl]-1H-indol-5-yl]-2-benzofurancarboxamide, reference compound]	–	0.1	160	0.1	(4/6)	–	0.025	147	not to cause delayed death	–	–	–	0.1	–	–	0.02	(4/6)	No Delayed Death	213	213
